Experimental data published in patent US20230150974A1 (Foghorn Therapeutics Inc., priority 2020, published 2023).

Tests used:
[1] = target: T1, HiBiT-BRM (Homo sapiens, UniProt P51531); assay: HiBiT-BRM cell-based degradation assay (Nano-Glo HiBiT Lytic Detection); settings: HeLa cells expressing HiBiT-BRM, 24 h; for DC50: read-out: BRM HiBit Degradation IC50
T1 construct: expressed in transfected cells
Summary of the method: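 HeLa cells stably expressing HiBiT-tagged BRM were treated for 24 h, then lysed with LgBiT-containing Nano-Glo reagent and luminescence read. % degradation scaled between DMSO (high control) and 2 μM reference BRM/BRG1 degrader (low control).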

[2] = target: T2, HiBit-BRG1 (Homo sapiens, UniProt P51532); assay: HiBit-BRG1 cell-based degradation assay (Nano-Glo HiBiT Lytic Detection); settings: HeLa cells expressing HiBit-BRG1 and LgBit, 24 h; for DC50: read-out: BRG1 HiBit Degradation IC50; for Dmax: read-out: BRG1 HiBit Degradation Maximum (%)
T2 construct: expressed in transfected cells
T2 sequence (P51532 whole entry): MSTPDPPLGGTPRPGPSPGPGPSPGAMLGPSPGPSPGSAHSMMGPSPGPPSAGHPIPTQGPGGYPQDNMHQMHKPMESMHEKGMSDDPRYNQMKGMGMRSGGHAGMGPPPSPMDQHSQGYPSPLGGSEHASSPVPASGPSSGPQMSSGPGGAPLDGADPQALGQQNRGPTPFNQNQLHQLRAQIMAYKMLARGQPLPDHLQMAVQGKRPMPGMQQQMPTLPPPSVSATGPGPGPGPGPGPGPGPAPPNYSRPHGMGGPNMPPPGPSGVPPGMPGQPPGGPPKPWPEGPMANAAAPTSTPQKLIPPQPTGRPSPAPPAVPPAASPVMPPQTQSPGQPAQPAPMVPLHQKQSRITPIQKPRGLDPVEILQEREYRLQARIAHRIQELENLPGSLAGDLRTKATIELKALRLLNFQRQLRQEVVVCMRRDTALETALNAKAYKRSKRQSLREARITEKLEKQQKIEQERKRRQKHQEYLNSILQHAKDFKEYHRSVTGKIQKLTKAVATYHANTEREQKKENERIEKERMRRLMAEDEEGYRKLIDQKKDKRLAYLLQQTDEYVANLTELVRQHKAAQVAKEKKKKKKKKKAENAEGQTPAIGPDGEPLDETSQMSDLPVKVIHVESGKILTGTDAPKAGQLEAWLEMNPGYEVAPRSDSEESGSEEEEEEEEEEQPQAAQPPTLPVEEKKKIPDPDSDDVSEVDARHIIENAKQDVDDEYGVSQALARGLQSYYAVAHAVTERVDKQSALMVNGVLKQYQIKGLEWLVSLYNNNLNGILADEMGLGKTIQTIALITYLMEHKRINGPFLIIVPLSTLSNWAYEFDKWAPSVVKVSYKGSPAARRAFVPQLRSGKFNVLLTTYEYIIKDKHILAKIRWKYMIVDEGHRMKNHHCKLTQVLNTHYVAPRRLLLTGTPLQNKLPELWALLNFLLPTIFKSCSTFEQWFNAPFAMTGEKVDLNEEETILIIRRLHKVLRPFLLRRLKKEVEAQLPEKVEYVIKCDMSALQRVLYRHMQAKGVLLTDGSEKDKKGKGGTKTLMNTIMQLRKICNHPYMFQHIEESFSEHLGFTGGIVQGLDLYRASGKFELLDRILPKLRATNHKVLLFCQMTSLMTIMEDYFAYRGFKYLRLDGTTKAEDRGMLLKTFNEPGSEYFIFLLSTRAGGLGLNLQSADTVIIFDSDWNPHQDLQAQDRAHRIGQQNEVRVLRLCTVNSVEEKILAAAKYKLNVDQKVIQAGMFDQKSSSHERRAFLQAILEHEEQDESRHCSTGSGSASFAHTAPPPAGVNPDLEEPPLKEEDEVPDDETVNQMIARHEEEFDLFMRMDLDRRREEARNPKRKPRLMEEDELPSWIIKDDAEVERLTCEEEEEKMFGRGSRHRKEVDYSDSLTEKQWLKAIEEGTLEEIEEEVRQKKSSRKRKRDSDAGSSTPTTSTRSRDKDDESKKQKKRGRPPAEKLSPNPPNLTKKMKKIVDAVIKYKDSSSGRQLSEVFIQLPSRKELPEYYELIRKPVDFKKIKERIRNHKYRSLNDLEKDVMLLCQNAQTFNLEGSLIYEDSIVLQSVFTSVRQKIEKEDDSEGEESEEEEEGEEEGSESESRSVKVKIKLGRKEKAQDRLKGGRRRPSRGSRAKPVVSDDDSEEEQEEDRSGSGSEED
Summary of the method: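 HeLa cells stably expressing HiBit-BRG1 plus LgBit; compound exposure 24 h; Nano-Glo HiBiT lytic luminescence; % degradation vs DMSO (0%) and 2 μM standard BRM/BRG1 degrader (100%).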

T1 sequence (P51531 whole entry): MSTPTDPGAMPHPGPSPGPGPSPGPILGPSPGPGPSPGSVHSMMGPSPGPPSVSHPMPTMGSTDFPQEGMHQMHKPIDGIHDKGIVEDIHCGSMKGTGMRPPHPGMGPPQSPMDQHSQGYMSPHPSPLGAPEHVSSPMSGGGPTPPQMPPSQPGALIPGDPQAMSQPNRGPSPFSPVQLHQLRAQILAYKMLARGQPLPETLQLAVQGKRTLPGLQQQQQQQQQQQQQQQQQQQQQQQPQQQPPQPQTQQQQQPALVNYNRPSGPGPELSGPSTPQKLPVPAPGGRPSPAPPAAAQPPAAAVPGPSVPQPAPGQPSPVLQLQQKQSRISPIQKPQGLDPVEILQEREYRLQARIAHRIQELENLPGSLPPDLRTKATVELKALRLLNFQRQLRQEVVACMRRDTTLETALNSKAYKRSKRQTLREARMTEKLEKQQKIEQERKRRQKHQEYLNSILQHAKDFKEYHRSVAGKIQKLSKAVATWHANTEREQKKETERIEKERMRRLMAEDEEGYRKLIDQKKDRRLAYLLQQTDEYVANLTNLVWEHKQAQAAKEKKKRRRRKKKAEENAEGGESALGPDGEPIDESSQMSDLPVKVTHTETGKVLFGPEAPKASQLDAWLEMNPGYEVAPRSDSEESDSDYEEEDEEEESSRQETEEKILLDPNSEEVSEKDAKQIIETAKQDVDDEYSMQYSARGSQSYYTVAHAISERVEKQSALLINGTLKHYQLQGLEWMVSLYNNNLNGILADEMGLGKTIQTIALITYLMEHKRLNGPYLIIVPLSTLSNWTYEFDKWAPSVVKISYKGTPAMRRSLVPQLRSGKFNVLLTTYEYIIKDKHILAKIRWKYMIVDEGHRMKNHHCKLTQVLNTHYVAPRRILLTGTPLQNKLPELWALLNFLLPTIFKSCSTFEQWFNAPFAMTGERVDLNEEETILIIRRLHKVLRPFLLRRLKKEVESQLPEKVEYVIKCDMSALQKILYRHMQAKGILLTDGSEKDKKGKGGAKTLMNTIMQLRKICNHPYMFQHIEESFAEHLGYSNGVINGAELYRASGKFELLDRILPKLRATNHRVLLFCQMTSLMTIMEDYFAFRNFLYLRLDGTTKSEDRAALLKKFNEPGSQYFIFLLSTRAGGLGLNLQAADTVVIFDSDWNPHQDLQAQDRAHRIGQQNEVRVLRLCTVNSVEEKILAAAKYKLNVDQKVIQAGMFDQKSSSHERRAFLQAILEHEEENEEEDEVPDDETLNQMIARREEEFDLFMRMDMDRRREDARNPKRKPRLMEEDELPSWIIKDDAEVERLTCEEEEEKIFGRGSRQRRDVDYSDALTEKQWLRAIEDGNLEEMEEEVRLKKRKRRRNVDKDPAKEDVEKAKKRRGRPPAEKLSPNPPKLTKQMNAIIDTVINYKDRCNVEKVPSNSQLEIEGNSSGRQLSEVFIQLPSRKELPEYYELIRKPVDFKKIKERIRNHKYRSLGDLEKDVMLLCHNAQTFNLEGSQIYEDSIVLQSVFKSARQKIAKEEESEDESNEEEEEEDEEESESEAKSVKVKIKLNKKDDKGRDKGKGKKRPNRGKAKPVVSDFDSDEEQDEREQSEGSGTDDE

| Structure (SMILES) | DC50 [1] | DC50 [2] | Dmax [2] | BRM HiBit Degradation Maximum (%) [1] |
| --- | --- | --- | --- | --- |
| Cc1ncsc1-c1ccc(CNC(=O)[C@@H]2C[C@@H](O)CN2C(=O)[C@@H](NC(=O)CCN2CCC3(CCN(CCC(=O)NCc4ccc(CCOc5cc(-c6ccccc6O)nnc5N)cc4)CC3)CC2)C(C)(C)C)cc1 [Compound 252, (2S,4R)-1-((S)-2-(3-(9-(3-((4-(2-((3-amino-6-(2-hydroxyphenyl)pyridazin-4-yl)oxy)ethyl)benzyl)amino)-3-oxopropyl)-3,9-diazaspiro[5.5]undecan-3-yl)propanamido)-3,3-dimethylbutanoyl)-4-hydroxy-N-(4-(4-methylthiazol-5-yl)benzyl)pyrrolidine-2-carboxamide] | > 1 µM | > 1 µM | < 50% | C (“C” indicates maximum degradation <50%) |
| Nc1nnc(-c2ccccc2O)cc1N1CCN(CC(=O)NCCS(=O)(=O)CCNc2cccc3c2C(=O)N(C2CCC(=O)NC2=O)C3=O)CC1 (centres unmarked) [Compound 79, 2-[4-[3-amino-6-(2-hydroxyphenyl)pyridazin-4-yl]piperazin-1-yl]-N-[2-(2-[[2-(2,6-dioxopiperidin-3-yl)-1,3-dioxoisoindol-4-yl]amino]ethanesulfonyl)ethyl]acetamide] | > 1 µM | > 1 µM | < 50% | C (“C” indicates maximum degradation <50%) |
| Cc1ncsc1-c1ccc(CNC(=O)[C@@H]2C[C@@H](O)CN2C(=O)[C@@H](NC(=O)CCN2CC3(C2)CN(C(=O)c2ccc(CCOc4cc(-c5ccccc5O)nnc4N)cc2)C3)C(C)(C)C)cc1 [Compound 200, (2S,4R)-1-((S)-2-(3-(6-(4-(2-((3-amino-6-(2-hydroxyphenyl)pyridazin-4-yl)oxy)ethyl)benzoyl)-2,6-diazaspiro[3.3]heptan-2-yl)propanamido)-3,3-dimethylbutanoyl)-4-hydroxy-N-(4-(4-methylthiazol-5-yl)benzyl)pyrrolidine-2-carboxamide] | > 1 µM | > 1 µM | < 50% | C (“C” indicates maximum degradation <50%) |
| Nc1nnc(-c2ccccc2O)cc1OCCc1ccc(C(=O)NCCCCCCNc2ccc3c(c2)C(=O)N(C2CCC(=O)NC2=O)C3=O)cc1 (centres unmarked) [Compound 46, 4-(2-[[3-amino-6-(2-hydroxyphenyl)pyridazin-4-yl]oxy]ethyl)-N-(6-[[2-(2,6-dioxopiperidin-3-yl)-1,3-dioxoisoindol-5-yl]amino]hexyl)benzamide] | > 1 µM | > 1 µM | < 50% | C (“C” indicates maximum degradation <50%) |
| Cc1ncsc1-c1ccc(CNC(=O)[C@@H]2C[C@@H](O)CN2C(=O)[C@@H](NC(=O)CCCCCCCCCNC(=O)c2ccc(CCOc3cc(-c4ccccc4O)nnc3N)cc2)C(C)C)cc1 [Compound 170, (2S,4R)-1-((10-(4-(2-((3-amino-6-(2-hydroxyphenyl)pyridazin-4-yl)oxy)ethyl)benzamido)decanoyl)-L-valyl)-4-hydroxy-N-(4-(4-methylthiazol-5-yl)benzyl)pyrrolidine-2-carboxamide] | > 1 µM | > 1 µM | < 50% | C (“C” indicates maximum degradation <50%) |
| Cc1ncsc1-c1ccc(CNC(=O)[C@@H]2C[C@@H](O)CN2C(=O)[C@@H](NC(=O)CCCOCCOCCNC(=O)c2ccc(CCOc3cc(-c4ccccc4O)nnc3N)cc2)C(C)(C)C)cc1 [Compound 24, (2S,4R)-1-[(2S)-2-[4-[2-(2-[[4-(2-[[3-amino-6-(2-hydroxyphenyl)pyridazin-4-yl]oxy]ethyl)phenyl]formamido]ethoxy)ethoxy]butanamido]-3,3-dimethylbutanoyl]-4-hydroxy-N-[[4-(4-methyl-1,3-thiazol-5-yl)phenyl]methyl]pyrrolidine-2-carboxamide] | > 1 µM | > 1 µM | < 50% | C (“C” indicates maximum degradation <50%) |
| Nc1nnc(-c2ccccc2O)cc1OCCc1ccc(CNC(=O)C2CCN(CCOc3ccc4c(c3)C(=O)N(C3CCC(=O)NC3=O)C4=O)CC2)cc1 (centres unmarked) [Compound 19, N-(4-(2-((3-amino-6-(2-hydroxyphenyl)pyridazin-4-yl)oxy)ethyl)benzyl)-1-(2-((2-(2,6-dioxopiperidin-3-yl)-1,3-dioxoisoindolin-5-yl)oxy)ethyl)piperidine-4-carboxamide] | > 1 µM | > 1 µM | < 50% | C (“C” indicates maximum degradation <50%) |
| Nc1nnc(-c2ccccc2O)cc1OCCc1ccc(CNC(=O)CCCCNc2cccc3c2C(=O)N(C2CCC(=O)NC2=O)C3=O)cc1 (centres unmarked) [Compound 4, N-[[4-(2-[[3-amino-6-(2-hydroxyphenyl)pyridazin-4-yl]oxy]ethyl)phenyl]methyl]-5-[[2-(2,6-dioxopiperidin-3-yl)-1,3-dioxoisoindol-4-yl]amino]pentanamide] | > 0.1 µM | > 1 µM | – | B (“B” indicates maximum degradation ≥50%) |
| Nc1nnc(-c2ccccc2O)cc1OCCc1ccc(CNCCN2CC3CC2CN3c2cccc3c2C(=O)N(C2CCC(=O)NC2=O)C3=O)cc1 (centres unmarked) [Compound 158, 4-(5-(2-((4-(2-((3-amino-6-(2-hydroxyphenyl)pyridazin-4-yl)oxy)ethyl)benzyl)amino)ethyl)-2,5-diazabicyclo[2.2.1]heptan-2-yl)-2-(2,6-dioxopiperidin-3-yl)isoindoline-1,3-dione] | > 0.1 µM | > 0.1 µM | > 50% | B (“B” indicates maximum degradation ≥50%) |
| Nc1nnc(-c2ccccc2O)cc1OCCc1ccc(C(=O)NCC(=O)NCc2ccc(S(=O)(=O)Nc3cccc4c(Cl)c[nH]c34)cc2)cc1 [Compound 18, 2-[[4-(2-[[3-amino-6-(2-hydroxyphenyl)pyridazin-4-yl]oxy]ethyl)phenyl]formamido]-N-([4-[(3-chloro-1H-indol-7-yl)sulfamoyl]phenyl]methyl)acetamide] | > 1 µM | > 1 µM | < 50% | C (“C” indicates maximum degradation <50%) |

Continued, in another order:

| DC50 [1] | DC50 [2] | Dmax [2] | Structure (SMILES) | BRM HiBit Degradation Maximum (%) [1] |
| --- | --- | --- | --- | --- |
| > 0.1 µM | > 0.1 µM | > 75% | Cc1ncsc1-c1ccc(CNC(=O)[C@@H]2C[C@@H](O)CN2C(=O)[C@@H](NC(=O)CCCCCCCCCCCCCCCC(=O)N(C)Cc2ccc(CCOc3cc(-c4ccccc4O)nnc3N)cc2)C(C)(C)C)cc1 [Compound 228, N1-(4-(2-((3-amino-6-(2-hydroxyphenyl)pyridazin-4-yl)oxy)ethyl)benzyl)-N17-((S)-1-((2S,4R)-4-hydroxy-2-((4-(4-methylthiazol-5-yl)benzyl)carbamoyl)pyrrolidin-1-yl)-3,3-dimethyl-1-oxobutan-2-yl)-N1-methylheptadecanediamide] | A (“A” indicates maximum degradation ≥75%) |
| < 0.01 µM | < 0.01 µM | > 75% | Cc1ncsc1-c1ccc([C@H](C)NC(=O)[C@@H]2C[C@@H](O)CN2C(=O)[C@@H](c2cc(OCCN(C)Cc3ccc(CCOc4cc(-c5ccccc5O)nnc4N)cc3)no2)C(C)C)cc1 [Compound 251, (2S,4R)-1-((R)-2-(3-(2-((4-(2-((3-amino-6-(2-hydroxyphenyl)pyridazin-4-yl)oxy)ethyl)benzyl)(methyl)amino)ethoxy)isoxazol-5-yl)-3-methylbutanoyl)-4-hydroxy-N-((S)-1-(4-(4-methylthiazol-5-yl)phenyl)ethyl)pyrrolidine-2-carboxamide] | A (“A” indicates maximum degradation ≥75%) |
| > 0.1 µM | > 1 µM | > 50% | Cc1ncsc1-c1ccc(CNC(=O)[C@@H]2C[C@@H](O)CN2C(=O)[C@@H](NC(=O)CCCCCCCCC(=O)NCc2ccc(CCN(C)c3cc(-c4ccccc4O)nnc3N)cc2)C(C)(C)C)cc1 [Compound 132, N′-[[4-(2-[[3-amino-6-(2-hydroxyphenyl)pyridazin-4-yl](methyl)amino]ethyl)phenyl]methyl]-N-[(2S)-1-[(2S,4R)-4-hydroxy-2-([[4-(4-methyl-1,3-thiazol-5-yl)phenyl]methyl]carbamoyl)pyrrolidin-1-yl]-3,3-dimethyl-1-oxobutan-2-yl]decanediamide] | A (“A” indicates maximum degradation ≥75%) |
| > 0.1 µM | > 0.1 µM | > 50% | Cc1ncsc1-c1ccc(CNC(=O)[C@@H]2C[C@@H](O)CN2C(=O)[C@@H](NC(=O)CCCCCCCC(=O)NCc2ccc(CCOc3cc(-c4ccccc4O)nnc3N)cc2)C(C)(C)C)cc1 [Compound 33] | A (“A” indicates maximum degradation ≥75%) |
| > 0.01 µM | > 1 µM | < 50% | Cc1ncsc1-c1ccc(CNC(=O)[C@@H]2C[C@@H](O)CN2C(=O)[C@@H](NC(=O)CCCCCCCCCCCCCC(=O)NCc2ccc(CCOc3cc(-c4ccccc4O)nnc3N)cc2)C(C)(C)C)cc1 [Compound 35, N1-(4-(2-((3-amino-6-(2-hydroxyphenyl)pyridazin-4-yl)oxy)ethyl)benzyl)-N15-((S)-1-((2S,4R)-4-hydroxy-2-((4-(4-methylthiazol-5-yl)benzyl)carbamoyl)pyrrolidin-1-yl)-3,3-dimethyl-1-oxobutan-2-yl)pentadecanediamide] | A (“A” indicates maximum degradation ≥75%) |
